Test results reported in US20110207689A1, “THE TREATMENT OF HEARING LOSS” (Auckland UniServices Limited, priority 2008, published 2011).
“Also recorded” adds a separate entry of the source.

Key:
Assay type in all cases: in vivo, Wistar rats
[1] = tested on: organ of Corti hair cells; assay: Hair cell counts after acute (2 hours) noise exposure (Experiment 2); settings: 2 h noise 110 dB SPL; five ADAC injections; vehicle 23-34%
Method: (§1) After the overnight fixation, the cochlea was decapsulated in 0.1 M PBS, to isolate the organ of Corti. The organ of Corti was removed with fine forceps, and separated into the apical, middle and basal turns. Wholemount tissues of the organ of Corti were placed into a 24-well plate, and then permeabilised with 1% Trition-X in 0.1 M PBS for 1 hour. 1% Alexa Fluor 488 phalloidin (Invitrogen) dissolved in 0.1 M PBS was used to stain the hair cells and their stereocilia. Tissues were incubated in phalloidin for 40 minutes, washed with 0.1 M PBS 3×10 min and mounted onto glass slides using CitiFlour. The slides were visualised using a Zeiss epi-fluorescence microscope and processed with Axiovision v3.1 software, using dark field filter and 100×, 200×, and 400× magnification. Non-overlapping images were taken for the entire length of the cochlea, and the number of missing outer hair cells was counted for each turn and presented as a percentage of total number of hair cells.
The percentage of total number of hair cells was determined as for Experiment 1.
The outer and inner hair cells were counted in Alexa 488 phalloidin-labelled surface preparation of the organ of Corti in the basal, middle and apical turns and the percentage of missing hair cells was calculated for each turn.

[2] = tested on: nitrotyrosine immunoreactivity in the organ of Corti; assay: Nitrotyrosine (NT) immunohistochemistry of cochlea after 24 hours noise (Experiment 1); settings: ADAC treated cochlea versus vehicle
Method: Hearing thresholds were assessed using auditory brainstem responses (ABRs) and the cellular damage was evaluated by quantitative histology (hair cell loss). ABR represents the activity of the auditory nerve and the central auditory pathways (brainstem/mid-brain regions) responding to the sound (clicks or pure tones). Nitrotyrosine marker was used for the immunohistochemical assessment of free radical damage.
After overnight fixation in 4% PFA, rat cochleae were decalcified in a 5% EDTA solution for 7 days and cryoprotected in a 30% sucrose (in 0.1 M PB) solution overnight. The cochleae were snap-frozen in N-pentane, and stored at −80° C. until further processing. Frozen cochlear tissues were cryosectioned at 30 μm and transferred into 24-well plates (Nalge Nunc Int., Naperville, USA) containing the sterile 0.1M PBS, and permeabilised with 1% Triton X-100 for 1 hr. Non-specific binding sites were blocked with 10% normal goat serum (Vector Laboratories, Burlingame, Calif.). […] Tissue sections were incubated with the secondary antibody for 2 hours in the dark, then rinsed several times in PBS, mounted in fluorescence medium (DAKO Corporation, Carpinteria, Calif., USA) and screened for NT specific immunofluorescence using a confocal microscope (TCS SP2, Leica Leisertechnik GmbH, Heidelberg, Germany). […]

[3] = Body weight, temperature and behaviour in animals treated with ADAC (Experiment 2)
Method: A. Body weight was measured immediately before noise exposure and 14 days after noise exposure. B. Rectal temperature (° C.) was measured before ADAC administration and 30 and 60 minutes after the injection. Number of animals: n=8 per group.

[4] = tested on: rats exposed to 8-12 kHz band noise for 2 hours at 110 dB SPL; assay: ABR threshold shifts after acute (2 hours) noise exposure, systemic ADAC (Experiment 2); settings: 14 days post-noise
Method: ABRs were measured in response to auditory clicks and pure tones (4-28 kHz) before and at time intervals (30 minutes and 14 days) after noise exposure. Five ADAC injections (100 μg/kg i.p.) were administered at 24 hour intervals commencing 6 hours post-noise. In the control group, injections of the vehicle solution were administered at the same intervals as ADAC. Data are expressed as means±SEM. Animal numbers: n=8 per group. *p<0.05; **p<0.01; unpaired t-test.
Rats were exposed to 8-12 kHz band noise presented for 2 hours at 110 dB SPL. […]
ABRs were obtained by placing fine platinum electrodes subdermally at the mastoid region of the ear of interest (active electrode), scalp vertex (reference) and mastoid region of the opposite ear (ground electrode). […] The sound threshold of the ABR complex (waves I-IV) were determined by progressively attenuating the sound intensity until the waveform can no longer be observed. The acoustic stimuli for ABR were produced and the responses recorded using a Tucker-Davis Technologies auditory physiology workstation (Alachua, Fla., USA).
All ABR measurements were performed in a sound attenuator chamber (Shelburg Acoustics, Sydney, Australia). […] The ABR threshold was defined as the lowest intensity (to the nearest 5 dB) at which a response could be visually detected above the noise floor. […]

[5] = tested on: organ of Corti hair cells; assay: Hair cell loss, phalloidin-stained organ of Corti after 24 hours noise (Experiment 1); settings: basal turn, noise 8-12 kHz 110 dB SPL 24 hours, versus vehicle
Source text: After the last ABR measurement, rats were killed by Pentobarbitone overdose and cochleae removed for histological analysis. The isolated cochleae were kept in 4% Paraformaldehyde overnight, until further processing (decapsulation or decalcification).
as §1

SMILES: NCCNC(=O)Cc1ccc(NC(=O)Cc2ccc(Nc3ncnc4c3ncn4[C@@H]3O[C@H](CO)[C@@H](O)[C@H]3O)cc2)cc1 [ADAC, adenosine amine congener]
- hair cell loss, basal cochlear turn (average) [1]: 9%
- hair cell loss, middle cochlear turn (average) [1]: 7%
- NT immunostaining in the cochlea [2]: very little NT immunostaining; also recorded: reduced in the ADAC treated cochlea to a background level
- overt behavioural changes ([3]; ADAC 100 μg/kg): did not induce overt behavioural changes
- body weight ([3]; ADAC 100 μg/kg, before noise exposure and 14 days after): did not induce overt behavioural changes in rats or alterations in body weight
- signs of systemic toxicity (loss of body weight, feeding or drinking behaviour, hypothermia) ([3]; ADAC treatment): No signs of systemic toxicity
- body temperature (rectal) ([3]; before and 30 and 60 minutes after ADAC 100 μg/kg injection): remained stable
- ABR threshold shifts versus vehicle-treated controls ([4]; five ADAC injections): threshold shifts were reduced
- threshold recovery, highest ([4]; pure tone frequencies 4 to 16 kHz, five ADAC injections 100 μg/kg i.p. commencing 6 hours post-noise): up to 30 dB
- hair cell morphology, surface preparation of the organ of Corti [5]: well preserved hair cell morphology
